Experimental data from PubChem BioAssay (NCI).
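Interpolation was linear, between the two tested concentrations surrounding the appropriate level; five concentrations were tested over 48 hours in 96-well plates. The concentration for 50% growth inhibition is given as GI50. Definition used: TGI = concentration required for complete inhibition of growth.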

Key:
Assay in all cases: inhibition of tumour cell growth, NCI panel, 48 h
MDA-MB-435 = system: MDA-MB-435
HCC-2998 colon = system: HCC-2998 colon
U251 CNS = system: U251 CNS
COLO 205 colon = system: COLO 205 colon
ACHN renal = system: ACHN renal
CAKI-1 renal = system: CAKI-1 renal
SK-MEL-28 melanoma = system: SK-MEL-28 melanoma
M14 melanoma = system: M14 melanoma
MOLT-4 leukemia = system: MOLT-4 leukemia
MCF7 breast = system: MCF7 breast

SMILES	GI50 (MDA-MB-435) [µM]	TGI (MDA-MB-435) [µM]	GI50 (HCC-2998 colon) [µM]	TGI (HCC-2998 colon) [µM]	GI50 (U251 CNS) [µM]	TGI (U251 CNS) [µM]	GI50 (COLO 205 colon) [µM]	TGI (COLO 205 colon) [µM]	GI50 (ACHN renal) [µM]	TGI (ACHN renal) [µM]	GI50 (CAKI-1 renal) [µM]	TGI (CAKI-1 renal) [µM]	GI50 (SK-MEL-28 melanoma) [µM]	TGI (SK-MEL-28 melanoma) [µM]	TGI (M14 melanoma) [µM]	TGI (MOLT-4 leukemia) [µM]	GI50 (M14 melanoma) [µM]	GI50 (MCF7 breast) [µM]	TGI (MCF7 breast) [µM]	GI50 (MOLT-4 leukemia) [µM]
COc1cc2c(-c3nc4cc(Cl)c(F)cc4s3)cc(=O)oc2c(C)c1OC	1.77	3.76	2.4	4.29	1.29	2.66	1.66	3.32	1.36	2.81	0.307	0.78	1.81	3.49						
CCc1nc2c(O)ccc(O)c2nc1C				> 54.9		30.2		7.26		23		33.2		34.4	28.3	> 39.5				
C[C@]12CC[C@H](O)CC1=CC[C@@H]1[C@@H]2CC[C@]2(C)C(=O)/C(=C/c3cccc(OCCCn4ccnc4)c3)C[C@@H]12	36.8	> 100	34.1	> 100	24.8	77.3	20.3	45.8	16.7	38.6	38.4	> 100	22.2	51.5	33.2		18.5	23.1	54.1	
COc1ccc(C2C3=C(NC(=O)C2C#N)c2ccc4ccccc4c2OCC3)cc1 (stereo unspecified)	> 100	> 100			23.6	54.2	> 100	> 100	21.9	59.5	33.8	70.3	42.3	> 100	> 100	> 100	90.2	> 100	> 100	> 100
CCOC(C)OCC#CCCBr (stereo unspecified)				> 100		> 100		> 100		> 100		> 100			> 100	> 100				
COc1ccc(-c2cc3cccc(OC)c3c(=O)o2)cc1OC	3.22	> 100			12.4	> 100	35.8	> 100	59.3	> 100	0.094	32	44.4	> 100	> 100	> 100	93.9	32	> 100	47.9
O=C1CCC2(c3ccc(F)cc3)Nc3ccccc3N12 (stereo unspecified)				> 100		> 100		> 100		> 100		> 100		> 100	> 100	> 100				
O=[N+]([O-])c1ccccc1S(=O)c1ccccc1 (stereo unspecified)				> 100		> 100				> 100		> 100		> 100	> 100	> 100				
N#C/C(=C\c1ccc(CP(=O)(O)O)cc1)C(N)=O				> 100		> 100		> 100		> 100		> 100		> 100	> 100	> 100				
C=C1C(=O)O[C@@H]2C[C@]3(C)[C@@H](C[C@H]12)[C@](C)(O)CC[C@@H]3O				> 100		> 100		> 100		> 100		> 100		> 100	> 100	> 100				
O=CC1=CCCC2(C1)OCCO2				> 100		> 100		> 100				> 100		> 100	> 100					
Cc1c(/C=C2\CC/C(=C\c3[nH]c(C(=O)OC(C)(C)C)c(C)c3C)C2=O)[nH]c(C(=O)OC(C)(C)C)c1C				> 100		> 100		> 100				> 100			> 100	> 100				
CC(=O)O[C@]1(C(C)=O)CC[C@H]2[C@@H]3C[C@H](C)C4=CC(=O)C=C[C@]4(C)[C@@]3(F)[C@@H](O)C[C@@]21C				> 100		> 100		> 100		> 100		> 100		> 100	> 100	> 100				
OCC(O)CC[CH2][Sn]([c]1ccccc1)([c]1ccccc1)[c]1ccccc1 (stereo unspecified)			18.2	34.5	15.6	30.2	19.5	35.3	8.89	21	8.12	21.5			31		14.2			
COc1cc2c(cc1OC)C1c3ccccc3C(C#N)(C2)N(C(=O)c2ccccc2)C1O (stereo unspecified)				> 100		> 100		53.1		> 100				> 100	> 100	> 100				
O=c1/c(=C/c2cccc3ccccc23)sc2nc3ccccc3n12				> 100		> 100		> 100		> 100		> 100		> 100	> 100					
[Cu+2].[Cu+2].[O-]c1ccccc1C=Nc1ccccc1[O-].[O-]c1ccccc1C=Nc1ccccc1[O-]			10.3	22.4			2.26	5.11	7.81	20.8	10.8	22.8	13.3	26	15.3	9.97	4.45			2.99
O=C1C=C(SCCO)C(=O)c2ccccc21	1.34	2.65	2.78	6.8	1.76	3.25	2.11	4.29	1.54	2.87	2.08	6.97	2.01	4.02	3.36	4.51	1.78			1.26
COc1cc2c(cc1OC)C13CCN4CC5=CCOC(CC(=O)O)C(C5CC41)C3N2 (stereo unspecified)		> 100				> 100		> 100		> 100		> 100		> 100	> 100	> 100			> 100	
